Tests used:
[1] = tested on: hippocampus-derived neurons; experiment: Neuronopathy model: single neuron-astrocyte coculture treated with Aβ peptide (Aβ25-35), Sholl analysis of dendrites and axons; type: cell-based, ICR mouse; conditions: for neuropathy of nerve axons (branches and elongation, Tau antibody staining, Sholl analysis) / neuropathy of nerve dendrites (branches and elongation, MAP2 antibody staining, Sholl analysis): Aβ25-35 1 μM, test compound 0.3 μM, exposed for three days, FIGS. 2 and 3; for neurotoxicity caused by Aβ: primary neurons, low concentration of 0.3 μM, summary statement
Protocol: In a neuronopathy model due to Aβ peptide of which a single neuron-astrocyte coculture sample is treated with Aβ peptide, an improvement effect in neurodegeneration of a MKH derivative was evaluated. Since mitochondrial affinity of the derivative and reconvertibility to MKH are expected affect the MKH delivery by an MKH derivative, a cationic derivative (MKH-DMG) presumed to have a high affinity, an anionic derivative (MKH-SUC) having a high intracellular reconversionability, and an oxidant of MKH (MK-4) used in clinical study were evaluated (Chem. 7).
After culturing (2 weeks) astrocytes isolated from the cerebral cortex of 0- to 1-day-old ICR mouse, regions were divided in dots on a slide glass and cultured. After culturing for one more week, hippocampus-derived neurons of 0- to 1-day-old ICR mouse were seeded and cocultured. From day 1 of seeding neuron, Aβ25-35 (1 μM) and a test compound (0.3 μM) were exposed for three days, and morphological change of neurons was observed. Dendrites (MAP2 antibody) and axons (Tau antibody) of nerves were stained by immunostaining and analyzed. Dendrites and axons were evaluated for changes in branches and elongation of dendrites and axons by Sholl analysis method.

neural cells = experiment: Mitochondrial dysfunction caused by Complex I inhibitor rotenone in neural cells; type: cell-based; conditions: summary statement on the respiratory chain inhibitor tests in neural cells
Protocol: Effects of an MKH derivative and a PKH derivative to mitochondrial dysfunctions caused by Complex I inhibitor rotenone ([…] Complex II inhibitor (3-nitro propionic acid (3-NP)), Complex III inhibitor (antimycin A), and a depolarizing agent (carbonylcyanide-m-chlorophenylhydrazone, CCCP) in neural cells were evaluated. The effects were evaluated with cell death (viability measurement with cell titer blue), inhibition of ATP production (ATP measurement with cell titer glo), and membrane potential reduction (JC-1 staining: depolarization (green), hyperpolarization (red)).

Compound: CC(C)=CCC/C(C)=C/CC/C(C)=C/CC/C(C)=C/Cc1c(C)c(OC(=O)CN(C)C)c2ccccc2c1OC(=O)CN(C)C [MKH-DMG]
- neuropathy of nerve axons (branches and elongation, Tau antibody staining, Sholl analysis) [1]: significantly improved
- neuropathy of nerve dendrites (branches and elongation, MAP2 antibody staining, Sholl analysis) [1]: significantly improved
- neurotoxicity caused by Aβ [1]: can improve
- mitochondrial function (respiratory chain) damage / mitochondrial dysfunction (membrane potential reduced mitochondria) (neural cells): can improve

Compound: Menaquinone-4 [MK-4, reference compound]
- neuropathy of nerve axons (branches and elongation, Tau antibody staining, Sholl analysis) [1]: No improvement effect
- neuropathy of nerve dendrites (branches and elongation, MAP2 antibody staining, Sholl analysis) [1]: No improvement effect

Compound: CC(C)=CCC/C(C)=C/CC/C(C)=C/CC/C(C)=C/Cc1c(C)c(OC(=O)CCC(=O)O)c2ccccc2c1OC(=O)CCC(=O)O [MKH-SUC]
- neuropathy of nerve axons (branches and elongation, Tau antibody staining, Sholl analysis) [1]: significantly improved
- neuropathy of nerve dendrites (branches and elongation, MAP2 antibody staining, Sholl analysis) [1]: significantly improved
- neurotoxicity caused by Aβ [1]: can improve
- mitochondrial function (respiratory chain) damage / mitochondrial dysfunction (membrane potential reduced mitochondria) (neural cells): can improve

From patent US20230147196A1, “MITOCHONDRIAL DYSFUNCTION IMPROVING AGENT” (priority 2020, published 2023)
